Laboratory results published in patent US11667675B2, “MASP inhibitory compounds and uses thereof” (Bayer Aktiengesellschaft, priority 2019, dated 2023).
Structures can show the parent of a compound that is named as a salt. Numbered stars: 1 amine (or outer) side, 2 acyl side, 3 side chain; on linkers, the order of the positions; unused ones are H or OH. Bridge positions count the residues as written; N and C are the ends. Square brackets hold non-standard residues; d marks the D form. Peptide text beside a SMILES is read from it. * marks the point of attachment. X1 = O=C(C1[C@H]2CCCC[C@H]2C[C@H]1C(=O)[*:2])[C@@H]1CCCN1[*:1]; Oic = O=C(O)[C@@H]1C[C@@H]2CCCC[C@@H]2N1; Pen = CC(C)(S)[C@H](N)C(=O)O; X2 = N[C@@H](CN*)C(=O)O; Sar = CNCC(=O)O

Legend:
rat MASP2 = molecular target: T1, rat MASP2 (Rattus norvegicus, UniProt Q9JJS8); assay: Biochemical rat MASP2 assay (FRET substrate); conditions: average IC50; recombinant rat MASP2, FRET substrate
T1 construct: Ig-kappa secretion signal (N, cleaved yes); made in house; host or cells: HEK293 (ATCC No. CRL-1573)
T1 sequence (Q9JJS8 296-443): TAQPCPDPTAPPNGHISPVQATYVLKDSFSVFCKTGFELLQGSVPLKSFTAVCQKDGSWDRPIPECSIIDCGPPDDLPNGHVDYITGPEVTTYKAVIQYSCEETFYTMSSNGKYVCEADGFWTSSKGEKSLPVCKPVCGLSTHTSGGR
T1 sequence (Q9JJS8 444-685): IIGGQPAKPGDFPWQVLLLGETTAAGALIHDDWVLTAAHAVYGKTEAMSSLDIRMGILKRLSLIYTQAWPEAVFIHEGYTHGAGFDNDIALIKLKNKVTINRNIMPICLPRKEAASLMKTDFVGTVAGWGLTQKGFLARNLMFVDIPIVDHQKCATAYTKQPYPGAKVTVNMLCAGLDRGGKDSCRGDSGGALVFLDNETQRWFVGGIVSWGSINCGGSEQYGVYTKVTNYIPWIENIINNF
Description: 4. Biochemical Rat MASP-1 and MASP-2 Assay
4.1 Recombinant Expression and Protein Production of Recombinant Human and Rat MASP1 and MASP2 Active Proteases.
(§1) The MASP1 or MASP2 expression vectors were transfected into the HEK293 (ATCC No. CRL-1573) cell line using Lipofectamine LTX® Reagent (Thermo-Fischer), as described by the manufacturer. The mature form of the recombinant rat MASP1 and MASP2 proteases were secreted into the culture medium. The MASP1 and MASP2 proteins were purified from the conditioned media by affinity chromatography on Ni-NTA Superflow resin (Qiagen) as described by the manufacturer.
4.3 Biochemical Rat MASP2 Assay.
(§2) Recombinant rat MASP2 enzyme produced in the HEK 293 cells was diluted in the reaction buffer (50 mM HEPES pH 8,0; 100 mM NaCl; 0.01% CHAPS; 0.5 mM Gluthathione) to the concentration of 20 nM and 25 μl was transferred into each single well of 384-well white microtiter plate (Greiner Bio One 781075). 1 μl of the inhibitor compound solution (dissolved in DMSO, at the corresponding concentration) or pure DMSO as a control was added to the same wells. The enzymatic reaction was initiated by addition of 25 μl of 30 μM solution of the FRET substrate Abz-IEGRTSED-(Lys)Dnp-NH2 (SEQ ID NO: 9); (ABZ—2-aminobenzoyl; DNP_2,4-dinitrophenyl; custom synthesis by Jerini Peptide Technologies, Berlin) in the reaction buffer. The microtiter plate was incubated for 60-120 min at the temperature of 32 C. The increase of fluorescence intensity was measured in appropriate fluorescence plate reader (e.g. TECAN Ultra) using excitation wavelength of 320 nm and emission wavelength of 420 nm. IC50 values were calculated from percentage of inhibition of rat […] activity as a function of test compound concentration.

Human C3-[…] = assay: C3 deposition assay, human serum on mannan-coated plates; format: biochemical; conditions: average IC50, read-out: Human C3-DEPOSITION SERUM IC50
Method: 3. C3 Deposition Assay (Human, Rat, Mouse, Dog, Mini-Pig)
The C3 deposition assay was conducted essentially as described (reference). Multi well plates (Greiner-Nunc 384 Maxi Sorp #464718) were coated over night with Mannan from Saccharomyces cerevisiae (Sigma M7504, 10 μg/mL in 0.05 M carbonate-bicarbonate buffer, pH 9.6) at 4° C. Wells were washed three times with TBS and subsequently incubated for 2 hours with 50 μL of 1% bovine serum albumin (BSA) in Tris-buffered saline (TBS) at 37° C. in order to block non-specific binding. After this step and each of the following incubation steps wells were washed three times with C3 wash buffer (TBS; 0.05% Tween 20; 5 mM CaCl2). […] When appropriately developed the color reaction was stopped by addition of 25 μL of stop solution (Sigma S5814) and quantified on a photometer by measuring absorption at a wavelength of 450 nm. Antibodies were diluted in C3 wash buffer supplemented with 0.5% BSA.

human MASP2 = molecular target: T2, human MASP2 (Homo sapiens, UniProt O00187); assay: Biochemical human MASP2 assay (FRET substrate); conditions: average IC50
T2 construct: Ig-kappa secretion signal (N, cleaved yes); made in house; host or cells: HEK293 (ATCC No. CRL-1573)
T2 sequence (O00187 297-444): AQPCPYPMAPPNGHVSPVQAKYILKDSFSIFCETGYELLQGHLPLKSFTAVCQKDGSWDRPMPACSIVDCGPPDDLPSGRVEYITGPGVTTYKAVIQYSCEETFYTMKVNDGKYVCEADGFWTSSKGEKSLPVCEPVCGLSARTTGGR
T2 sequence (O00187 445-686): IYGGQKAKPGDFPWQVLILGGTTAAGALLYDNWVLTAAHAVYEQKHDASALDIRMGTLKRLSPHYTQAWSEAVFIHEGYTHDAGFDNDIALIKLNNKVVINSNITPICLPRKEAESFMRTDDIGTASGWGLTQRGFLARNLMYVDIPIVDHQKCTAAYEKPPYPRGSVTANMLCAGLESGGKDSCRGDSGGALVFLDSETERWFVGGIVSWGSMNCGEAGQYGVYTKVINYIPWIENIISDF
Description: 2.1 Recombinant Expression and Protein Production of Recombinant Human MASP1 and MASP2 Active Proteases.
as §1, with “The mature form of the recombinant rat MASP1 and MASP2 proteases were secreted into the culture medium.” left out
2.3 Biochemical Human MASP2 Assay
as §2, with “Recombinant human” for “Recombinant rat”, “wells. […]” for “wells. The enzymatic reaction was initiated by addition of 25 μl of 30 μM solution of the FRET substrate Abz-IEGRTSED-(Lys)Dnp-NH2 (SEQ ID NO: 9); (ABZ—2-aminobenzoyl; DNP_2,4-dinitrophenyl; custom synthesis by Jerini Peptide Technologies, Berlin) in the reaction buffer.”, “of 340” for “of 320”, “of 490” for “of 420”, “of human” for “of rat”

Structure (SMILES) | IC50 (rat MASP2) [nM] | IC50 (Human C3-[…]) [nM] | IC50 (human MASP2) [nM]
CC[C@H](C)[C@H](NC(=O)CNC)C(=O)N[C@H]1CSSC(C)(C)[C@@H](C(=O)N[C@H](C(=O)N2CCC[C@H]2C(=O)NC[C@H](N)C(=O)O)[C@@H](C)CC)NC(=O)[C@H]([C@@H](C)CC)NC(=O)[C@@H]2C[C@@H]3CCCC[C@@H]3N2C(=O)[C@@H]2CCCN2C(=O)[C@H](CC(C)C)NC(=O)[C@H](CO)NC(=O)[C@H](CCCNC(=N)N)NC(=O)[C@H](CO)NC1=O [Example 467] (H-[Sar]ICSRSLP[Oic]I[Pen]IP-X2; disulfide 3-11) | 70 | 41.5 | 55
CC[C@H](C)[C@H](NC(=O)CNC)C(=O)N[C@H]1CSSC(C)(C)[C@@H](C(=O)N[C@H](C(=O)N2CCC[C@H]2C(N)=O)[C@@H](C)CC)NC(=O)[C@H]([C@@H](C)CC)NC(=O)[C@@H]2C[C@@H]3CCCC[C@@H]3N2C(=O)[C@@H]2CCCN2C(=O)[C@H](CC(C)C)NC(=O)[C@H](CO)NC(=O)[C@H](CCCNC(=N)N)NC(=O)[C@H](CO)NC1=O [Example 109, ((N-Me)G)-IC+SRSLP-(Oic)-I-(Pen)+IP-NH2] (H-[Sar]ICSRSLP[Oic]I[Pen]IP-NH2; disulfide 3-11) | 42 | 135 | 69.6
CC[C@H](C)[C@H](NC(=O)CNC)C(=O)N[C@H]1CSSC(C)(C)[C@@H](C(=O)N[C@H](C(=O)N2CCC[C@H]2C(N)=O)[C@@H](C)CC)NC(=O)[C@H]([C@@H](C)CC)NC(=O)[C@@H]2C[C@@H]3CCCC[C@@H]3C2C(=O)[C@@H]2CCCN2C(=O)[C@H](CC(C)C)NC(=O)[C@H](CO)NC(=O)[C@H](CCCNC(=N)N)NC(=O)[C@H](CO)NC1=O (stereo partly drawn) [Example 67, ((N-Me)G)-IC+SRSLP-(Oic)-I-(Pen)+IP-NH2 (HCl Salt)] (H-[Sar]ICSRSL[X1]I[Pen]IP-NH2; disulfide 3-10) | 36 | 121 | 43
[2H][C@@H]1[C@H]([2H])CN2C(=O)[C@H](CC(C)C)NC(=O)[C@H](CO)NC(=O)[C@H](CCCNC(=N)N)NC(=O)[C@H](CO)NC(=O)[C@@H](NC(=O)[C@@H](NC(=O)[C@H](C)N)[C@@H](C)CC)CSSC(C)(C)[C@@H](C(=O)N[C@H](C(=O)N3CCC[C@H]3C(=O)N[C@@H](CC(=O)O)C(=O)O)[C@@H](C)CC)NC(=O)[C@H]([C@@H](C)CC)NC(=O)[C@@H]3C[C@@H]4CCCC[C@@H]4N3C(=O)[C@H]12 [Example 142, N-[(1R,2S,6S,9S,12S,15S,18R,23R,26S,28aS,35aS)-18-[(L-alanyl-L-isoleucyl)amino]-26-[(2S)-butan-2-yl]-12-(3-carbamimidamidopropyl)-9,15-bis(hydroxymethyl)-22,22-dimethyl-6-(2-methylpropyl)-5,8,11,14,17,25,28,35-octaoxo(1,2-^2H2)dotriacontahydro-1H,5H,22H-pyrrolo[2′,1′:13,14][1,2,5,8,11,14,17,20,23,26]dithiaoctaazacyclononacosino[11,10-a]indole-23-carbonyl]-L-isoleucyl-L-prolyl-L-aspartic Acid] | 17.1 | 12.4 | 126
CC[C@H](C)[C@H](NC(=O)CNC)C(=O)N[C@H]1CSSC(C)(C)[C@@H](C(=O)N[C@H](C(=O)N2CCC[C@H]2C(=O)N[C@@H](CC(=O)O)C(=O)N[C@@H](CC(=O)O)C(=O)O)[C@@H](C)CC)NC(=O)[C@H]([C@@H](C)CC)NC(=O)[C@@H]2C[C@@H]3CCCC[C@@H]3N2C(=O)[C@@H]2CCCN2C(=O)[C@H](CC(C)C)NC(=O)[C@H](CO)NC(=O)[C@H](CCCNC(=N)N)NC(=O)[C@H](CO)NC1=O [Example 466, ((N-Me)G)-IC+SRSLP-(Oic)-I-(Pen)+IPDD-OH] (H-[Sar]ICSRSLP[Oic]I[Pen]IPDD-OH; disulfide 3-11) | 72 | 71.6 | 40
CC[C@H](C)[C@H](NC(=O)[C@H](C)N)C(=O)N[C@H]1CSSC[C@@H](C(=O)N[C@H](C(=O)N2CCC[C@H]2C(=O)N[C@@H](CC(=O)O)C(N)=O)[C@@H](C)CC)N(C)C(=O)[C@H]([C@@H](C)CC)NC(=O)[C@@H]2C[C@@H]3CCCC[C@@H]3N2C(=O)[C@@H]2CCCN2C(=O)[C@H](CC(C)C)NC(=O)[C@H](CO)NC(=O)[C@H](CCCNC(=N)N)NC(=O)[C@H](CO)NC1=O [Example 185, AIC+SRSLP-(Oic)-I-((N-Me)C)+IPD-NH2] | 10.9 | 6.74 | 245
CC[C@H](C)[C@H](NC(=O)[C@H](C)NC)C(=O)N[C@H]1CSSC(C)(C)[C@@H](C(=O)N[C@H](C(=O)N2CCC[C@H]2C(N)=O)[C@@H](C)CC)NC(=O)[C@H]([C@@H](C)CC)NC(=O)[C@@H]2C[C@@]3(CN2C(=O)[C@@H]2CCCN2C(=O)[C@@H](CC(C)(C)C)NC(=O)[C@H](CO)NC(=O)[C@H](CCCNC(=N)N)NC(=O)[C@H](CO)NC1=O)CC3(F)F (single isomer, unassigned; enantiomer 1) [Example 443] | 4.7 | 25.2 | 74
